This note sets out measurements from US20230242585A1, “IMMUNOMODULATORS” (Bristol-Myers Squibb Company, priority 2020, published 2023).

SMILES strings stand for the structures. pIC50: −log10 of the molar value. Starred links: 1 amine or outer side, 2 acyl side, 3 side chain; linkers in the order of their positions; H or OH if unused. Positions of bridges follow the written chain, without caps; N, C: chain ends. Non-standard residues stand in square brackets, D forms with d. Residues, ends and D or L forms follow the SMILES beside them. X48 = O=C([C@H](CCNCc1ccccc1O[C@@H]1O[C@H](CO)[C@@H](O)[C@H](O)[C@H]1O)N[*:1])[*:2]; X47 = O=C([C@H](CNCc1ccccc1O[C@@H]1O[C@H](CO)[C@@H](O)[C@H](O)[C@H]1O)N[*:1])[*:2]; Trp(1-CH2COOH) = N[C@@H](Cc1cn(CC(=O)O)c2ccccc12)C(=O)O; X65 = O=C([C@H](CCNCc1ccccc1-c1ccc(Cl)cc1)N[*:1])[*:2]; X64 = O=C([C@H](CNCc1ccccc1-c1ccc(Cl)cc1)N[*:1])[*:2]; X12 = O=C([C@H](CNCc1cccc2ccc3ccccc3c12)N[*:1])[*:2]; X19 = O=C([C@H](CCNCc1cccc2nccnc12)N[*:1])[*:2]; X18 = O=C([C@H](CNCc1cccc2nccnc12)N[*:1])[*:2]; Hyp = O=C(O)[C@@H]1C[C@@H](O)CN1; NMeNle = CCCC[C@H](NC)C(=O)O; NMeA = CN[C@@H](C)C(=O)O; Dab = NCC[C@H](N)C(=O)O

T1 sequence (Q9NZQ7 18-239): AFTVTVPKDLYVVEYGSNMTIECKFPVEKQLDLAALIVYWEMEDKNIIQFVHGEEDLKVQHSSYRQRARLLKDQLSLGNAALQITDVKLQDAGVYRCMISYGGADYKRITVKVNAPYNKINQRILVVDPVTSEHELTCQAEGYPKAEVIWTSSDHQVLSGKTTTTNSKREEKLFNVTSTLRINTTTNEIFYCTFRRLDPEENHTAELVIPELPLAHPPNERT

The assay addresses T1, PD-1/PD-L1 (Homo sapiens, UniProt Q9NZQ7).
T1 construct: TVMV protease site (linker) (C); made in house; host or cells: HEK293T cells
The experiment in a line: PD-1/PD-L1 Homogenous Time-Resolved Fluorescence (HTRF) binding assay. To be noted: PD-L1-His 10 nM, PD-1-Ig 20 nM. The source says:
The ability of the compounds of formula (I) to bind to PD-L1 was investigated using a PD-1/PD-L1 Homogenous Time-Resolved Fluorescence (HTRF) binding assay.
The interaction of PD-1 and PD-L1 can be assessed using soluble, purified preparations of the extracellular domains of the two proteins. The PD-1 and PD-L1 protein extracellular domains were expressed as fusion proteins with detection tags, for PD-1, the tag was the Fc portion of Immunoglobulin (PD-1-Ig) and for PD-L1 it was the 6 histidine motif (PD-L1-His). All binding studies were performed in an HTRF assay buffer consisting of dPBS supplemented with 0.1% […] bovine serum albumin and 0.05% (v/v) Tween-20. For the h/PD-L1-His binding assay, inhibitors were pre-incubated with PD-L1-His (10 nM final) for 15 m in 4 µl of assay buffer, followed by addition of PD-1-Ig (20 nM final) in 1 µl of assay buffer and further incubation for 15 m. HTRF detection was achieved using europium crypate-labeled anti-Ig (1 nM final) and allophycocyanin (APC) labeled anti-His (20 nM final). Antibodies were diluted in HTRF detection buffer and 5 µl was dispensed on top of the binding reaction. The reaction mixture was allowed to equilibrate for 30 minutes and the resulting signal (665 nm/620 nm ratio) was obtained using an EnVision fluorometer. Additional binding assays were established between the human proteins PD-1-Ig/PD-L2-His (20 & 5 nM, respectively) and CD80-His/PD-L1-Ig (100 & 10 nM, respectively).
Recombinant Proteins: Human PD-1 (25-167) with a C-terminal human Fc domain of immunoglobulin G (Ig) epitope tag [hPD-1 (25-167)-3S-IG] and human PD-L1 (18-239) with a C-terminal His epitope tag [hPD-L1(18-239)-TVMV-His] were expressed in HEK293T cells and purified sequentially by ProteinA affinity chromatography and size exclusion chromatography. Human PD-L2-His and CD80-His was obtained through commercial sources.
Table 1 lists the IC50 values for representative examples of this disclosure measured in the PD-1/PD-L1 Homogenous Time-Resolved Fluorescence (HTRF) binding assay.
Molecule `CCCC[C@H]1C(=O)N(C)[C@@H](CCCC)C(=O)N[C@@H](CC(C)C)C(=O)N[C@H](C(=O)NCC(N)=O)CSCC(=O)N[C@@H](Cc2ccc(O)cc2)C(=O)N(C)[C@@H](C)C(=O)N[C@@H](CC(N)=O)C(=O)N2CCC[C@H]2C(=O)N[C@@H](CNCc2ccccc2-c2ccc(Cl)cc2)C(=O)N[C@@H](CC(C)C)C(=O)N2C[C@H](O)C[C@H]2C(=O)N[C@@H](Cc2c[nH]c3ccccc23)C(=O)N[C@@H](CCNCc2ccccc2-c2ccc(Cl)cc2)C(=O)N[C@@H](Cc2cn(CC(=O)O)c3ccccc23)C(=O)N1C` [Example 1001] ({CH2CO}-Y[NMeA]NP[X64]L[Hyp]W[X65][Trp(1-CH2COOH)][NMeNle][NMeNle]LCG-NH2; thioether N-14) showed a pIC50 of 7.85.

The molecule `CCCC[C@H]1C(=O)N(C)[C@@H](CCCC)C(=O)N[C@@H](CC(C)C)C(=O)N[C@H](C(=O)NCC(N)=O)CSCC(=O)N[C@@H](Cc2ccc(O)cc2)C(=O)N(C)[C@@H](C)C(=O)N[C@@H](CC(N)=O)C(=O)N2CCC[C@H]2C(=O)N[C@@H](CNCc2cccc3nccnc23)C(=O)N[C@@H](CC(C)C)C(=O)N2C[C@H](O)C[C@H]2C(=O)N[C@@H](Cc2c[nH]c3ccccc23)C(=O)N[C@@H](CCNCc2cccc3nccnc23)C(=O)N[C@@H](Cc2cn(CC(=O)O)c3ccccc23)C(=O)N1C` [Example 1002] ({CH2CO}-Y[NMeA]NP[X18]L[Hyp]W[X19][Trp(1-CH2COOH)][NMeNle][NMeNle]LCG-NH2; thioether N-14) showed a pIC50 of 8.21.

Consider `CCCC[C@H]1C(=O)N(C)[C@@H](CCCC)C(=O)N[C@@H](CC(C)C)C(=O)N[C@H](C(=O)NCC(N)=O)CSCC(=O)N[C@@H](Cc2ccc(O)cc2)C(=O)N(C)[C@@H](C)C(=O)N[C@@H](CC(N)=O)C(=O)N2CCC[C@H]2C(=O)N[C@@H](CNCc2cccc3nccnc23)C(=O)N[C@@H](CC(C)C)C(=O)N2C[C@H](O)C[C@H]2C(=O)N[C@@H](Cc2c[nH]c3ccccc23)C(=O)N[C@@H](CCN)C(=O)N[C@@H](Cc2cn(CC(=O)O)c3ccccc23)C(=O)N1C` [Example 1004] ({CH2CO}-Y[NMeA]NP[X18]L[Hyp]W[Dab][Trp(1-CH2COOH)][NMeNle][NMeNle]LCG-NH2; thioether N-14), for which the pIC50 is 8.37.

Molecule `CCCC[C@H]1C(=O)N(C)[C@@H](CCCC)C(=O)N[C@@H](CC(C)C)C(=O)N[C@H](C(=O)NCC(N)=O)CSCC(=O)N[C@@H](Cc2ccc(O)cc2)C(=O)N(C)[C@@H](C)C(=O)N[C@@H](CC(N)=O)C(=O)N2CCC[C@H]2C(=O)N[C@@H](CNCc2cccc3ccc4ccccc4c23)C(=O)N[C@@H](CC(C)C)C(=O)N2C[C@H](O)C[C@H]2C(=O)N[C@@H](Cc2c[nH]c3ccccc23)C(=O)N[C@@H](CCN)C(=O)N[C@@H](Cc2cn(CC(=O)O)c3ccccc23)C(=O)N1C` [Example 1005] ({CH2CO}-Y[NMeA]NP[X12]L[Hyp]W[Dab][Trp(1-CH2COOH)][NMeNle][NMeNle]LCG-NH2; thioether N-14) showed a pIC50 of 6.92.

Turning to `CCCC[C@H]1C(=O)N(C)[C@@H](CCCC)C(=O)N[C@@H](CC(C)C)C(=O)N[C@H](C(=O)NCC(N)=O)CSCC(=O)N[C@@H](Cc2ccc(O)cc2)C(=O)N(C)[C@@H](C)C(=O)N[C@@H](CC(N)=O)C(=O)N2CCC[C@H]2C(=O)N[C@@H](CNCc2ccccc2O[C@@H]2O[C@H](CO)[C@@H](O)[C@H](O)[C@H]2O)C(=O)N[C@@H](CC(C)C)C(=O)N2C[C@H](O)C[C@H]2C(=O)N[C@@H](Cc2c[nH]c3ccccc23)C(=O)N[C@@H](CCNCc2ccccc2O[C@@H]2O[C@H](CO)[C@@H](O)[C@H](O)[C@H]2O)C(=O)N[C@@H](Cc2cn(CC(=O)O)c3ccccc23)C(=O)N1C` [Example 1006] ({CH2CO}-Y[NMeA]NP[X47]L[Hyp]W[X48][Trp(1-CH2COOH)][NMeNle][NMeNle]LCG-NH2; thioether N-14), the pIC50 is 7.49.
